Earlier results in patent publication US11512314B2, “Amphiphilic polynucleotides” (Duke University, priority 2019, dated 2022).
Like-named read-outs stand apart in the source and are kept apart here.

Key:
[1] = target: prostate-specific membrane antigen (PSMA) (Homo sapiens, UniProt Q04609); details: binding to PSMA
[2] = free 5FU, reported value
[3] = small molecule drug

Chain of prostate-specific membrane antigen (PSMA) (Q04609 whole entry): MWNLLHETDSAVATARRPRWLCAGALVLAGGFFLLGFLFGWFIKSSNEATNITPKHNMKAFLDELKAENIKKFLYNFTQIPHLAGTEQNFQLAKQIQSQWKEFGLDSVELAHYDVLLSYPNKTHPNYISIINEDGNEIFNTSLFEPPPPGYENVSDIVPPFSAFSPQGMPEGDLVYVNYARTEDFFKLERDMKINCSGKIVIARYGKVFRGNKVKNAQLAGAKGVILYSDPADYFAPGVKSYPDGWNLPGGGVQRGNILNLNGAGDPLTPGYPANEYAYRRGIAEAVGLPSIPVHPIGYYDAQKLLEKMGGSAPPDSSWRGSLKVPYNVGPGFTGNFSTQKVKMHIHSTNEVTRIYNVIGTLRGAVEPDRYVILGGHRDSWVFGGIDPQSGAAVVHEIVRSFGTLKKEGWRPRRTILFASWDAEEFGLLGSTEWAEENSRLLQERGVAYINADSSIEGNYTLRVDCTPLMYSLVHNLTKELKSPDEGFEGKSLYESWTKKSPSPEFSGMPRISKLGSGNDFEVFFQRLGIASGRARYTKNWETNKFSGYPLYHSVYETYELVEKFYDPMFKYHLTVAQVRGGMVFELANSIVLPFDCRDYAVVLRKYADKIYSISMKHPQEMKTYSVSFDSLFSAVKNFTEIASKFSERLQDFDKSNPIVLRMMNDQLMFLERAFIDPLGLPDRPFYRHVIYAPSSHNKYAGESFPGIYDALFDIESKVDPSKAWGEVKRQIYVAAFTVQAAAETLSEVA

Row | Molecule | Kd [1] [nM] | reported MTD [2] [mg/kg] | reported MTD ([2]; listed as 5-FU) [mg/kg] | half-life [3] [min]
1 | 5′-GGGAGGACGAUGCGGAUCAGCCAUGUUUACGUCACUCCU-3′ (listed as RNA, chemistry not given here) [A10] | 2.1 | – | – | –
2 | O=c1[nH]cc(F)c(=O)[nH]1 [5FU] | – | 15 to 20 | 20 | 8 to 14
